pIC50: −log10 of the molar value. Where a name gives a salt, the structure may show the parent alone.
System: phosphoglycerate kinase (PGK) expression
Assay: PGK expression in wild type murine embryonic fibroblasts
Type: cell-based
Settings: 1 μM, 10 μM vs. wild type control (FIG. 12)

**Q.** With `O=c1c(O)cccn1Cc1cccc(Cl)c1` [Compound F2, 1-(3-chlorobenzyl)-3-hydroxypyridin-2(1H)-one] as the molecule, how does the PGK expression read?
**A.** up regulation

System: S. aureus
Assay: not given
Settings: Zinkernagel et al. 2008; cited from earlier work

**Q.** With `NC(Cn1ccc(=O)c(O)c1)C(=O)O` (centres unmarked) [mimosine] as the molecule, how does the lesion size read?
**A.** reduce the lesion size

System: not listed separately
Assay: solubility of pharmaceutically acceptable salts in water
Type: physicochemical
Settings: not given
Protocol: The formulator can determine the solubility of the pharmaceutically acceptable salts of the disclosed inhibitors by any method desirable. The following is a non-limiting example of a procedure for evaluating the solubility of a salt of a disclosed inhibitor. A suspension of tert-butyl-{1[-(4-chlorobenzyl)-3-hydroxy-2-oxo-1,2-dihydropyridin-4-yl]methyl}-piperazine-1-carboxylate methanesulfonate (26.6 mg) in distilled deionized water (3.0 mL) is sonicated for 20 min with water bath temperature under 25° C. The suspension is filtered to remove any insoluble salt. The clear filtrate solution (200 μL) is diluted with distilled deionized water (800 μL) and subjected to HPLC analysis. The following are results for the pharmaceutically acceptable salts outlined in Table VII above.

**Q.** For `CC(C)(C)OC(=O)N1CCN(Cc2ccn(Cc3ccc(Cl)cc3)c(=O)c2O)CC1` [hydrochloride, tert-butyl-{[1-(4-chlorobenzyl)-3-hydroxy-2-oxo-1,2-dihydropyridin-4-yl]methyl}-piperazine-1-carboxylate], which “Solubility” value is on record?
**A.** 5900 µg/mL

**Q.** With `CC(C)(C)OC(=O)N1CCN(Cc2ccn(Cc3ccc(Cl)cc3)c(=O)c2O)CC1` [p-toluenesulfonate, tert-butyl-{[1-(4-chlorobenzyl)-3-hydroxy-2-oxo-1,2-dihydropyridin-4-yl]methyl}-piperazine-1-carboxylate] as the molecule, how does the “Solubility” value read?
**A.** 2300 µg/mL

**Q.** With “tert-butyl-{[1-(4-chlorobenzyl)-3-hydroxy-2-oxo-1,2-dihydropyridin-4-yl]methyl}-piperazine-1-carboxylate [hydrogensulfonate]” as the molecule, how does the “Solubility” value read?
**A.** 13200 µg/mL

Same assay, conditions: thermodynamic from solid; distilled deionized water, sonicated 20 min, under 25° C., HPLC

**Q.** Which solubility at 20 min does the source give for `CC(C)(C)OC(=O)N1CCN(Cc2ccn(Cc3ccc(Cl)cc3)c(=O)c2O)CC1` [Compound A41, tert-butyl 4-{[1-(4-chlorobenzyl)-3-hydroxy-2-oxo-1,2-dihydropyridin-4-yl]methyl}-piperazine-1-carboxylate] here?
**A.** ~1 µg/mL

**Q.** Which solubility at 20 min does the source give for `CC(C)(C)OC(=O)N1CCN(Cc2ccn(Cc3ccc(Cl)cc3)c(=O)c2O)CC1.CS(=O)(=O)O` [methanesulfonate, tert-butyl-{1[-(4-chlorobenzyl)-3-hydroxy-2-oxo-1,2-dihydropyridin-4-yl]methyl}-piperazine-1-carboxylate methanesulfonate] here?
**A.** 16600 µg/mL

System: Staphylococcus aureus
Assay: not given
Settings: dose-dependent; Zinkernagel et al. 2008; cited from earlier work

**Q.** With `NC(Cn1ccc(=O)c(O)c1)C(=O)O` (centres unmarked) [mimosine] as the molecule, how does the “capacity of human phagocytes and whole blood to kill Staphylococcus aureus” value read?
**A.** boost

Target: HIFPH2 (EGLN1) (Homo sapiens (Human), UniProt Q9GZT9)
Assay: EGLN-1 Activity Assay (MALDI-TOF MS)
Type: biochemical
Settings: recombinant human EGLN-1-179/426, HIF-1α peptide 556-574
Protocol: The enzyme, quantity predetermined to hydroxylate 20% of substrate in 20 minutes, is added to start the reaction. Where inhibitors are used, compounds are prepared in dimethyl sulfoxide at 10-fold final assay concentration. After 20 minutes at room temperature, the reaction is stopped by transferring 10 μL of reaction mixture to 50 μL of a mass spectrometry matrix solution (α-cyano-4-hydroxycinnamic acid, 5 mg/mL in 50% acetonitrile/0.1% TFA, 5 mM NH4PO4). Two microliters of the mixture is spotted onto a MALDI-TOF MS target plate for analysis with an Applied Biosystems (Foster City, Calif.) 4700 Proteomics Analyzer MALDI-TOF MS equipped with a Nd:YAG laser (355 nm, 3 ns pulse width, 200 Hz repetition rate). Hydroxylated peptide product is identified from substrate by the gain of 16 Da. Data defined as percent conversion of substrate to product is analyzed in GraphPad Prism 4 to calculate IC50 values.

Chain of HIFPH2 (EGLN1) (Q9GZT9 179-426): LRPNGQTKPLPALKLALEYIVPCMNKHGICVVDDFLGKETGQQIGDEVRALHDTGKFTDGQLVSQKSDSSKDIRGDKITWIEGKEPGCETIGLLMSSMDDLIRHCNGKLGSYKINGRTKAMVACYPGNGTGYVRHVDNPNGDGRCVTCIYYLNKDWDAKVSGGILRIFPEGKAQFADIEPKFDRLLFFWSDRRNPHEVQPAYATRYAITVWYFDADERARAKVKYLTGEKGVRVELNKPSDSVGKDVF

**Q.** With “1-Benzyl-3-hydroxy-4-(4-benzylpiperidin-1-ylmethyl)pyridin-2(1H)-one [Compound B9]” as the molecule, how does the pIC50 read?
**A.** 4.77

**Q.** With “1-Benzyl-3-hydroxy-4-(benzylaminomethyl)pyridin-2(1H)-one [Compound C1]” as the molecule, how does the pIC50 read?
**A.** 4.92

**Q.** With `COc1ccccc1Cn1ccc(CN2CCCCCC2)c(O)c1=O` [Compound A18] as the molecule, how does the pIC50 read?
**A.** 4.74

**Q.** With `CC(C)(C)OC(=O)N1CCN(Cc2ccn(Cc3ccc(Cl)cc3)c(=O)c2O)CC1` [Compound A41, tert-butyl 4-{[1-(4-chlorobenzyl)-3-hydroxy-2-oxo-1,2-dihydropyridin-4-yl]methyl}-piperazine-1-carboxylate] as the molecule, how does the pIC50 read?
**A.** 4.85

**Q.** With `COC[C@H]1CCCN1Cc1ccn(Cc2ccccc2)c(=O)c1O` [Compound B5, 1-Benzyl-3-hydroxy-4-{[2-(methoxymethyl)pyrrolidin-1-yl]methyl}pyridin-2(1H)-one] as the molecule, how does the pIC50 read?
**A.** 5.05

**Q.** With `O=c1c(O)c(CN2CCN(c3ccc(Cl)nn3)CC2)ccn1Cc1ccccc1` [Compound B14, 1-Benzyl-3-hydroxy-4-[4-(6-chloropyridazin-3-yl)piperazin-1-ylmethyl]pyridin-2(1H)-one] as the molecule, how does the pIC50 read?
**A.** 4.96

**Q.** With `CC(NCc1ccn(Cc2ccccc2)c(=O)c1O)c1ccccc1` (centres unmarked) [Compound C14, 1-Benzyl-3-hydroxy-4-[(1-phenylethylamino)methyl]pyridin-2(1H)-one] as the molecule, how does the pIC50 read?
**A.** 4.92

**Q.** With `CC1CCC(NCc2ccn(Cc3ccccc3)c(=O)c2O)CC1` (centres unmarked) [Compound C17, 1-Benzyl-3-hydroxy-4-[(4-methylcyclohexylamino)methyl]pyridin-2(1H)-one] as the molecule, how does the pIC50 read?
**A.** 4.96

**Q.** With `O=C1NCCCCC1NCc1ccn(Cc2ccccc2)c(=O)c1O` (centres unmarked) [Compound C19, 3-[(1-Benzyl-3-hydroxy-2-oxo-1,2-dihydropyridin-4-yl)methylamino]azepan-2-one] as the molecule, how does the pIC50 read?
**A.** 4.92

**Q.** With `CSCCNCc1ccn(Cc2ccccc2)c(=O)c1O` [Compound C33] as the molecule, how does the pIC50 read?
**A.** 4.80

**Q.** With `O=c1c(O)c(CNCCCn2ccnc2)ccn1Cc1ccccc1` [Compound C35] as the molecule, how does the pIC50 read?
**A.** 4.92

**Q.** With `Cc1ccc(S(=O)(=O)n2ccc(CN3CCC(N4CCCCC4)CC3)c(O)c2=O)cc1` [Compound D10, 1-(4′-Methylbenzenesulfonyl)-3-hydroxy-4-[1,4]Bipiperidinyl-1′-ylmethylpyridin-2(1H)-one] as the molecule, how does the pIC50 read?
**A.** 5.36

**Q.** With `Cc1ccc(S(=O)(=O)n2ccc(CN3CCN(c4ccc(Cl)nn4)CC3)c(O)c2=O)cc1` [Compound D14, 1-(4′-Methylbenzenesulfonyl)-3-hydroxy-4-[4-(6-chloropyridazin-3-yl)piperazin-1-ylmethyl]pyridin-2(1H)-one] as the molecule, how does the pIC50 read?
**A.** 4.92

**Q.** With `O=c1c(O)cccn1Cc1cccc(Cl)c1` [Compound F2, 1-(3-chlorobenzyl)-3-hydroxypyridin-2(1H)-one] as the molecule, how does the pIC50 read?
**A.** 5.30

**Q.** With `O=c1c(O)cccn1Cc1ccc(Cl)cc1` [Compound F3, 1-(4-chlorobenzyl)-3-hydroxypyridin-2(1H)-one] as the molecule, how does the pIC50 read?
**A.** 5.92

From US8536181B2, “Prolyl hydroxylase inhibitors” (Aerpio Therapeutics Inc., priority 2009, dated 2013)
